Measured values from ChEMBL document CHEMBL3885861, “Open TG-GATES”.

Organism: Rattus norvegicus
Assay: Open TG-GATES - Regimen: Single
Format: toxicity, organism-based, Sprague-Dawley
Parameters: regimen Single, gender Male, age 6 weeks
Conditions: in vivo, po, 100 mg/kg, route gavage; for APTT / Bas / Eos / Fbg / Hb / Ht / Lym / MCH / MCHC / MCV / Mono / Neu / PT / Plat / RBC / Ret / WBC: tissue Blood; for KIDNEY_L / KIDNEY_R / KIDNEY_TOTAL: tissue Kidney; for LIVER: tissue Liver; for A/G / ALP / ALT / AST / BUN / CRE / Ca / Cl / DBIL / GLC / IP / K / LDH / Na / PL / RALB / TBIL / TC / TG / TP / gamma-GTP: tissue Plasma

O=C1CN(/N=C/c2ccc([N+](=O)[O-])o2)C(=O)N1 [NITROFURANTOIN]
TERMINAL_BW (6 h, dose level Low): 199.6 g
APTT (6 h, dose level High): 18.6 s
Bas (6 h, dose level High): 0%
Eos (6 h, dose level High): 1%
Fbg (6 h, dose level High): 216.6 mg/dL
Hb (6 h, dose level High): 13.3 g/dL
Ht (6 h, dose level High): 38%
Lym (6 h, dose level High): 73%
MCH (6 h, dose level High): 21.6 pg
MCHC (6 h, dose level High): 35%
MCV (6 h, dose level High): 61.7 fL
Mono (6 h, dose level High): 3.2%
Neu (6 h, dose level High): 21.4%
PT (6 h, dose level High): 12.9 s
Plat (6 h, dose level High): 122 x10_4/uL
RBC (6 h, dose level High): 615 x10_4/ul
Ret (6 h, dose level High): 7.7%
WBC (6 h, dose level High): 113.2 x10_2/uL
APTT (6 h, dose level Low): 16.4 s
Eos (6 h, dose level Low): 1.2%
Fbg (6 h, dose level Low): 215.8 mg/dL
Hb (6 h, dose level Low): 13.4 g/dL
Ht (6 h, dose level Low): 40.6%
Lym (6 h, dose level Low): 74.6%
MCH (6 h, dose level Low): 21.3 pg
MCHC (6 h, dose level Low): 32.9%
MCV (6 h, dose level Low): 64.5 fL
Mono (6 h, dose level Low): 6.8%
Neu (6 h, dose level Low): 17.8%
PT (6 h, dose level Low): 11.7 s
Plat (6 h, dose level Low): 121.5 x10_4/uL
RBC (6 h, dose level Low): 629.8 x10_4/ul
Ret (6 h, dose level Low): 7%
WBC (6 h, dose level Low): 89.8 x10_2/uL
KIDNEY_L (6 h, dose level High): 1 g
KIDNEY_R (6 h, dose level High): 1 g
KIDNEY_TOTAL (6 h, dose level High): 2 g
KIDNEY_L (6 h, dose level Low): 0.9 g
KIDNEY_R (6 h, dose level Low): 0.9 g
KIDNEY_TOTAL (6 h, dose level Low): 1.8 g
LIVER (6 h, dose level High): 9.4 g
LIVER (6 h, dose level Low): 8.3 g
A/G (6 h, dose level High): 1.5
ALP (6 h, dose level High): 745.6 IU/L
ALT (6 h, dose level High): 32.2 IU/L
AST (6 h, dose level High): 64.6 IU/L
BUN (6 h, dose level High): 10.6 mg/dL
CRE (6 h, dose level High): 0.4 mg/dL
Ca (6 h, dose level High): 10.6 mg/dL
Cl (6 h, dose level High): 103.8 meq/L
DBIL (6 h, dose level High): 0.078 mg/dL
GLC (6 h, dose level High): 184.4 mg/dL
IP (6 h, dose level High): 8.9 mg/dL
K (6 h, dose level High): 4.2 meq/L
LDH (6 h, dose level High): 211 IU/L
Na (6 h, dose level High): 140.8 meq/L
PL (6 h, dose level High): 135.4 mg/dL
RALB (6 h, dose level High): 3.3 g/dL
TBIL (6 h, dose level High): 0.1 mg/dL
TC (6 h, dose level High): 78.8 mg/dL
TG (6 h, dose level High): 55 mg/dL
TP (6 h, dose level High): 5.5 g/dL
gamma-GTP (6 h, dose level High): 1.2 IU/L
A/G (6 h, dose level Low): 2.2
ALP (6 h, dose level Low): 1217 IU/L
AST (6 h, dose level Low): 66 IU/L
BUN (6 h, dose level Low): 13.6 mg/dL
Ca (6 h, dose level Low): 11 mg/dL
Cl (6 h, dose level Low): 104.6 meq/L
DBIL (6 h, dose level Low): 0.008 mg/dL
GLC (6 h, dose level Low): 190.8 mg/dL
IP (6 h, dose level Low): 8.7 mg/dL
K (6 h, dose level Low): 4.6 meq/L
LDH (6 h, dose level Low): 92.2 IU/L
Na (6 h, dose level Low): 139.4 meq/L
PL (6 h, dose level Low): 150.8 mg/dL
RALB (6 h, dose level Low): 3.9 g/dL
TBIL (6 h, dose level Low): 0.036 mg/dL
TC (6 h, dose level Low): 100 mg/dL
TG (6 h, dose level Low): 44 mg/dL
TP (6 h, dose level Low): 5.7 g/dL
gamma-GTP (6 h, dose level Low): 0.4 IU/L
TERMINAL_BW (9 h, dose level High): 213.9 g
TERMINAL_BW (9 h, dose level Low): 211 g
APTT (9 h, dose level High): 19.3 s
Bas (9 h, dose level High): 0%
Eos (9 h, dose level High): 1%
Fbg (9 h, dose level High): 245.8 mg/dL
Hb (9 h, dose level High): 13.1 g/dL
Ht (9 h, dose level High): 37.3%
Lym (9 h, dose level High): 75.4%
MCH (9 h, dose level High): 21.5 pg
MCHC (9 h, dose level High): 35.2%
MCV (9 h, dose level High): 61.1 fL
Mono (9 h, dose level High): 2.6%
Neu (9 h, dose level High): 19.8%
PT (9 h, dose level High): 12.9 s
Plat (9 h, dose level High): 126.6 x10_4/uL
RBC (9 h, dose level High): 609.4 x10_4/ul
Ret (9 h, dose level High): 8%
WBC (9 h, dose level High): 77.1 x10_2/uL
APTT (9 h, dose level Low): 19 s
Eos (9 h, dose level Low): 1.2%
Fbg (9 h, dose level Low): 229.2 mg/dL
Hb (9 h, dose level Low): 12.7 g/dL
Ht (9 h, dose level Low): 39%
Lym (9 h, dose level Low): 65.6%
MCH (9 h, dose level Low): 20.8 pg
MCHC (9 h, dose level Low): 32.7%
MCV (9 h, dose level Low): 63.6 fL
Mono (9 h, dose level Low): 9.2%
Neu (9 h, dose level Low): 24.4%
PT (9 h, dose level Low): 12.3 s
Plat (9 h, dose level Low): 124.9 x10_4/uL
RBC (9 h, dose level Low): 612.8 x10_4/ul
Ret (9 h, dose level Low): 6.7%
WBC (9 h, dose level Low): 65.8 x10_2/uL
KIDNEY_L (9 h, dose level High): 1 g
KIDNEY_R (9 h, dose level High): 1 g
KIDNEY_TOTAL (9 h, dose level High): 2 g
KIDNEY_R (9 h, dose level Low): 0.9 g
KIDNEY_TOTAL (9 h, dose level Low): 1.9 g
LIVER (9 h, dose level High): 9.3 g
LIVER (9 h, dose level Low): 9.4 g
A/G (9 h, dose level High): 1.5
ALP (9 h, dose level High): 749 IU/L
ALT (9 h, dose level High): 33.2 IU/L
AST (9 h, dose level High): 62 IU/L
BUN (9 h, dose level High): 11 mg/dL
CRE (9 h, dose level High): 0.3 mg/dL
Ca (9 h, dose level High): 10.7 mg/dL
Cl (9 h, dose level High): 103.4 meq/L
DBIL (9 h, dose level High): 0.07 mg/dL
GLC (9 h, dose level High): 191.8 mg/dL
IP (9 h, dose level High): 9.6 mg/dL
K (9 h, dose level High): 4 meq/L
LDH (9 h, dose level High): 219.8 IU/L
Na (9 h, dose level High): 141.2 meq/L
PL (9 h, dose level High): 146.6 mg/dL
RALB (9 h, dose level High): 3.2 g/dL
TBIL (9 h, dose level High): 0.1 mg/dL
TC (9 h, dose level High): 82.2 mg/dL
TG (9 h, dose level High): 42.2 mg/dL
TP (9 h, dose level High): 5.5 g/dL
gamma-GTP (9 h, dose level High): 1.2 IU/L
A/G (9 h, dose level Low): 2.1
ALP (9 h, dose level Low): 1192 IU/L
ALT (9 h, dose level Low): 30.2 IU/L
